Data taken from patent US20240190880A1 (THE REGENTS OF THE UNIVERSITY OF MICHIGAN, priority 2021, published 2024).

Target: T1, ER (Homo sapiens, UniProt P03372)
T1 construct: host or cells: T47D and MCF7 human breast cancer cells
T1 sequence (P03372 1-595): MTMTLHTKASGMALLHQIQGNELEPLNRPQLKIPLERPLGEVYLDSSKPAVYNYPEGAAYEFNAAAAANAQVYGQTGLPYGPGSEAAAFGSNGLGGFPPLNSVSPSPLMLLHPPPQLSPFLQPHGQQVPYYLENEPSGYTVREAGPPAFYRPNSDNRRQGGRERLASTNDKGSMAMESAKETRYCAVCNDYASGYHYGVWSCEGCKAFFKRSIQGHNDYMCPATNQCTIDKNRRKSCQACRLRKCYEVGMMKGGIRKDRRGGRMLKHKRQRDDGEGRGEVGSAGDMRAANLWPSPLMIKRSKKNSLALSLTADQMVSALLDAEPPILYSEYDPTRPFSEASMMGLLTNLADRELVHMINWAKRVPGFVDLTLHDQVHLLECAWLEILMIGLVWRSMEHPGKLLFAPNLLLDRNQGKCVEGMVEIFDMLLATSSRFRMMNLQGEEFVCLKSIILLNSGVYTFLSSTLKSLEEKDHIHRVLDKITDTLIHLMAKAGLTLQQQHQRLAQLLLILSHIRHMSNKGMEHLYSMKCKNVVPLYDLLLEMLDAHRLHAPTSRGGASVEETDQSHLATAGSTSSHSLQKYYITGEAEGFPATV
Assay: ER degradation activity, in-cell western blot analysis in T47D cells
Format: cell-based
Settings: 16 hours, Table A does not say which cell line (T47D or MCF7), read-out: Potency (DC50)
Method in brief: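 Cells were seeded overnight, exposed to diluted compounds for 16 hours, then stained with primary antibodies and with infrared-labelled secondary antibodies (1:1000, 1 h RT). Plates were scanned on a CLX reader, and ER levels were normalised to DMSO-treated wells.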

First: O=C1CCC(N2C(=O)c3cc4c(cc3C2=O)CN(CC(=O)N2CCC3(CCC(Oc5ccc([C@@H]6c7ccc(O)cc7CC[C@@H]6c6ccccc6)cc5)CC3)CC2)C4)C(=O)N1 (stereo partly drawn) [E 224, 2-(2,6-dioxopiperidin-3-yl)-6-(2-(9-(4-((1R,2S)-6-hydroxy-2-phenyl-1,2,3,4-tetrahydronaphthalen-1-yl)phenoxy)-3-azaspiro[5.5]undecan-3-yl)-2-oxoethyl)-6,7-dihydropyrrolo[3,4-f]isoindole-1,3(2H,5H)-dione]
Second: O=C1CCC(N2C(=O)c3cc4c(cc3C2=O)CN(CC(=O)N2CCC3(CCN(c5ccc([C@@H]6c7ccc(O)cc7CC[C@@H]6c6ccccc6)cc5)CC3)C2)C4)C(=O)N1 (mixture of isomers) [E 7, rac-2-(2,6-dioxopiperidin-3-yl)-6-(2-(8-(4-((1R,2S)-6-hydroxy-2-phenyl-1,2,3,4-tetrahydronaphthalen-1-yl)phenyl)-2,8-diazaspiro[4.5]decan-2-yl)-2-oxoethyl)-6,7-dihydropyrrolo[3,4-f]isoindole-1,3(2H,5H)-dione]
The DC50 of the first is higher: greater than 100 nM for the first, 10 to 100 nM for the second.

Compared with `O=C1CCC(N2C(=O)c3cc4c(cc3C2=O)CN(C(=O)CN2CCC3(CC2)CCN(c2ccc([C@@H]5c6ccc(O)cc6CC[C@@H]5c5ccccc5)cc2)CC3)C4)C(=O)N1` (mixture of isomers) [E 126, Rac-2-(2,6-dioxopiperidin-3-yl)-6-(2-(9-(4-((1R,2S)-6-hydroxy-2-phenyl-1,2,3,4-tetrahydronaphthalen-1-yl)phenyl)-3,9-diazaspiro[5.5]undecan-3-yl)acetyl)-6,7-dihydropyrrolo[3,4-f]isoindole-1,3(2H,5H)-dione], `O=C1CCC(N2C(=O)c3cc4c(cc3C2=O)CN(C(=O)CN2CCC3(CC2)CN(c2ccc([C@@H]5c6ccc(O)cc6CC[C@@H]5c5ccccc5)cc2)C3)C4)C(=O)N1` (mixture of isomers) [E 150, Rac-2-(2,6-dioxopiperidin-3-yl)-6-(2-(2-(4-((1R,2S)-6-hydroxy-2-phenyl-1,2,3,4-tetrahydronaphthalen-1-yl)phenyl)-2,7-diazaspiro[3.5]nonan-7-yl)acetyl)-6,7-dihydropyrrolo[3,4-f]isoindole-1,3(2H,5H)-dione] is higher in DC50: 10 to 100 nM for the first, greater than 100 nM for the second.

Compared with `O=C1CCC(N2C(=O)c3cc4c(cc3C2=O)CN(CC2CCN(CC3CN(c5ccc([C@@H]6c7ccc(O)cc7CC[C@@H]6c6ccccc6)cc5)C3)CC2)C4)C(=O)N1` (stereo partly drawn) [E244, 2-(2,6-dioxopiperidin-3-yl)-6-((1-((1-(4-((1R,2S)-6-hydroxy-2-phenyl-1,2,3,4-tetrahydronaphthalen-1-yl)phenyl)azetidin-3-yl)methyl)piperidin-4-yl)methyl)-6,7-dihydropyrrolo[3,4-f]isoindole-1,3(2H,5H)-dione], `O=C1CCC(N2C(=O)c3cc4c(cc3C2=O)CN(CC2(F)CCN(C(=O)C3(F)CN(c5ccc([C@@H]6c7ccc(O)cc7CC[C@@H]6c6ccccc6)cc5)C3)CC2)C4)C(=O)N1` (stereo partly drawn) [E 202, 2-(2,6-dioxopiperidin-3-yl)-6-((4-fluoro-1-(3-fluoro-1-(4-((1R,2S)-6-hydroxy-2-phenyl-1,2,3,4-tetrahydronaphthalen-1-yl)phenyl)azetidine-3-carbonyl)piperidin-4-yl)methyl)-6,7-dihydropyrrolo[3,4-f]isoindole-1,3(2H,5H)-dione] is higher in DC50: 10 to 100 nM for the first, greater than 100 nM for the second.

Compared with `C[C@@H]1Cc2c([nH]c3ccccc23)[C@@H](c2c(F)cc(N3CC4(CCN(C(=O)CN5Cc6cc7c(cc6C5)C(=O)N(C5CCC(=O)NC5=O)C7=O)C4)C3)cc2F)N1CC(F)F` (stereo partly drawn) [E 77, 6-(2-(2-(4-((1R,3R)-2-(2,2-difluoroethyl)-3-methyl-2,3,4,9-tetrahydro-1H-pyrido[3,4-b]indol-1-yl)-3,5-difluorophenyl)-2,6-diazaspiro[3.4]octan-6-yl)-2-oxoethyl)-2-(2,6-dioxopiperidin-3-yl)-6,7-dihydropyrrolo[3,4-f]isoindole-1,3(2H,5H)-dione], `C[C@@H]1Cc2c([nH]c3ccccc23)[C@@H](c2c(F)cc(N3CCC4(CCN(C(=O)CN5Cc6cc7c(cc6C5)C(=O)N(C5CCC(=O)NC5=O)C7=O)C4)C3)cc2F)N1CC(F)F` (stereo partly drawn) [E 79, 6-(2-(7-(4-((1R,3R)-2-(2,2-difluoroethyl)-3-methyl-2,3,4,9-tetrahydro-1H-pyrido[3,4-b]indol-1-yl)-3,5-difluorophenyl)-2,7-diazaspiro[4.4]nonan-2-yl)-2-oxoethyl)-2-(2,6-dioxopiperidin-3-yl)-6,7-dihydropyrrolo[3,4-f]isoindole-1,3(2H,5H)-dione] is higher in DC50: less than 10 nM for the first, 10 to 100 nM for the second.

`C[C@@H]1Cc2cc(O)ccc2[C@@H](c2c(F)cc(N3CCC4(CCN(C(=O)CN5Cc6cc7c(cc6C5)C(=O)N(C5CCC(=O)NC5=O)C7)C4)CC3)cc2F)N1CC(C)(F)F` (stereo partly shown) [E 138] and `C[C@@H]1Cc2c([nH]c3ccccc23)[C@@H](c2c(F)cc(N3CCC4(CCN(C(=O)CN5Cc6cc7c(cc6C5)C(=O)N(C5CCC(=O)NC5=O)C7)C4)C3)cc2F)N1CC(F)F` (stereo partly drawn) [E 68, 3-(6-(2-(7-(4-((1R,3R)-2-(2,2-difluoroethyl)-3-methyl-2,3,4,9-tetrahydro-1H-pyrido[3,4-b]indol-1-yl)-3,5-difluorophenyl)-2,7-diazaspiro[4.4]nonan-2-yl)-2-oxoethyl)-1-oxo-3,5,6,7-tetrahydropyrrolo[3,4-f]isoindol-2(1H)-yl)piperidine-2,6-dione] fall in the same range of DC50: 10 to 100 nM for the first, 10 to 100 nM for the second.

Compared with `O=C1CCC(N2C(=O)c3cc4c(cc3C2=O)CN(CC(=O)N2CC3(CCN(c5ccc([C@@H]6c7ccc(O)cc7CC[C@@H]6c6ccccc6)cc5)CC3)C2)CCC4)C(=O)N1` (stereo partly drawn) [E 171, 2-(2,6-dioxopiperidin-3-yl)-6-(2-(7-(4-((1R,2S)-6-hydroxy-2-phenyl-1,2,3,4-tetrahydronaphthalen-1-yl)phenyl)-2,7-diazaspiro[3.5]nonan-2-yl)-2-oxoethyl)-6,7,8,9-tetrahydroazepino[3,4-f]isoindole-1,3(2H,5H)-dione], `O=C1CCC(N2C(=O)c3cc4c(cc3C2=O)CN(CC(=O)N2CCC3(CC2)CCN(c2ccc([C@@H]5c6ccc(O)cc6CC[C@@H]5c5ccccc5)cc2)CC3)CC4)C(=O)N1` (mixture of isomers) [E 162, rac-2-(2,6-dioxopiperidin-3-yl)-6-(2-(9-(4-((1R,2S)-6-hydroxy-2-phenyl-1,2,3,4-tetrahydronaphthalen-1-yl)phenyl)-3,9-diazaspiro[5.5]undecan-3-yl)-2-oxoethyl)-5,6,7,8-tetrahydro-1H-pyrrolo[3,4-g]isoquinoline-1,3(2H)-dione] is lower in DC50: greater than 100 nM for the first, 10 to 100 nM for the second.

`C[C@@H]1Cc2c([nH]c3ccccc23)[C@@H](c2ccc(C3=CCC(C(=O)N4CCC(N5Cc6cc7c(cc6C5)C(=O)N(C5CCC(=O)NC5=O)C7=O)CC4)CC3)nc2)N1CC(F)F` (stereo partly drawn) [E 314, 6-(1-(4-(5-((1R,3R)-2-(2,2-difluoroethyl)-3-methyl-2,3,4,9-tetrahydro-1H-pyrido[3,4-b]indol-1-yl)pyridin-2-yl)cyclohex-3-ene-1-carbonyl)piperidin-4-yl)-2-(2,6-dioxopiperidin-3-yl)-6,7-dihydropyrrolo[3,4-f]isoindole-1,3(2H,5H)-dione] and `O=C1CCC(N2C(=O)c3cc4c(cc3C2=O)CN(CC(=O)N2CC3(CCN(c5ccc([C@@H]6c7ccc(O)cc7CC[C@@H]6c6ccccc6)cc5F)CC3)C2)C4)C(=O)N1` (mixture of isomers) [E 173, Rac-2-(2,6-dioxopiperidin-3-yl)-6-(2-(7-(2-fluoro-4-((1R,2S)-6-hydroxy-2-phenyl-1,2,3,4-tetrahydronaphthalen-1-yl)phenyl)-2,7-diazaspiro[3.5]nonan-2-yl)-2-oxoethyl)-6,7-dihydropyrrolo[3,4-f]isoindole-1,3(2H,5H)-dione] cannot be ordered by DC50: greater than 100 nM for the first, greater than 100 nM for the second.

Same assay, conditions: compounds 16 hours, Table A does not say whether T47D or MCF7, read-out: Potency (DC50)

Going from `C[C@@H]1Cc2c(ccc3[nH]ncc23)[C@@H](c2ccc(N3CCC4(CCN(C(=O)CN5Cc6cc7c(cc6C5)C(=O)N(C5CCC(=O)NC5=O)C7=O)CC4)CC3)cn2)N1CC(F)(F)F` (stereo partly drawn) [E 413, 2-(2,6-dioxopiperidin-3-yl)-6-(2-(9-(6-((6S,8R)-8-methyl-7-(2,2,2-trifluoroethyl)-6,7,8,9-tetrahydro-3H-pyrazolo[4,3-f]isoquinolin-6-yl)pyridin-3-yl)-3,9-diazaspiro[5.5]undecan-3-yl)-2-oxoethyl)-6,7-dihydropyrrolo[3,4-f]isoindole-1,3(2H,5H)-dione] to `C[C@@H]1Cc2c([nH]c3ccccc23)[C@@H](c2ncc(C3=CCC(C(=O)N4CCC(N5Cc6cc7c(cc6C5)C(=O)N(C5CCC(=O)NC5=O)C7=O)CC4)CC3)cc2F)N1CC(C)(F)F` (stereo partly drawn) [E 483, 6-(1-(4-(6-((1S,3R)-2-(2,2-difluoropropyl)-3-methyl-2,3,4,9-tetrahydro-1H-pyrido[3,4-b]indol-1-yl)-5-fluoropyridin-3-yl)cyclohex-3-ene-1-carbonyl)piperidin-4-yl)-2-(2,6-dioxopiperidin-3-yl)-6,7-dihydropyrrolo[3,4-f]isoindole-1,3(2H,5H)-dione], the DC50 rises from less than 10 nM to greater than 100 nM.
